These results are taken from PubChem BioAssay AID248 (DTP/NCI, 2004).

The subject of this assay is L1210 leukemia ip in BDF1 mice, survival T/C. Put plainly: NCI In Vivo Anticancer Drug Screen. Data for tumor model L1210 Leukemia (intraperitoneal) in B6D2F1 (BDF1) mice. To be noted: endpoint: mean survival time, higher = longer survival. A digest of the protocol:
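Tumor cells were implanted, animals were treated, and survival was followed. The result divides the treated measurement by the vehicle-control measurement.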

Setting [1] is: dose: 100.0 mg/kg/injection, schedule: Q01DX001 (ip), vehicle: saline.
Setting [2] is: dose: 200.0 mg/kg/injection, schedule: Q01DX001 (ip), vehicle: saline.
[3] abbreviates: dose: 100.0 mg/kg/injection, schedule: Q04DX003 (ip), vehicle: Klucel (hydroxypropylcellulose) (HPC).
Setting [4] is: dose: 200.0 mg/kg/injection, schedule: Q04DX003 (ip), vehicle: Klucel (hydroxypropylcellulose) (HPC).
[5] abbreviates: dose: 50.0 mg/kg/injection, schedule: Q01DX009 (ip), vehicle: other.
Setting [6] is: dose: 100.0 mg/kg/injection, schedule: Q01DX009 (ip), vehicle: other.

Each structure is given as a SMILES string. Several values for one entry are separate records, joined by “and”; a condition that tells them apart may be missing. Identical values can stand only once. Toxic doses and inconclusive results are not listed.

On to `CC(=O)OC1CCCCC1NC(=O)NCCCl` (stereo not drawn), for which the T/C (dose: 12.5 mg/kg/injection, schedule: Q04DX002 (ip), vehicle: Klucel (hydroxypropylcellulose) (HPC)) was 87 % of control; the T/C (dose: 25.0 mg/kg/injection, schedule: Q04DX002 (ip), vehicle: Klucel (hydroxypropylcellulose) (HPC)) is 93 % of control; the T/C (dose: 50.0 mg/kg/injection, schedule: Q04DX002 (ip), vehicle: Klucel (hydroxypropylcellulose) (HPC)) was 101 % of control; the T/C (dose: 100.0 mg/kg/injection, schedule: Q04DX002 (ip), vehicle: Klucel (hydroxypropylcellulose) (HPC)) was 91 % of control; the T/C (dose: 200.0 mg/kg/injection, schedule: Q04DX002 (ip), vehicle: Klucel (hydroxypropylcellulose) (HPC)) is 103 % of control; the T/C (dose: 400.0 mg/kg/injection, schedule: Q04DX002 (ip), vehicle: Klucel (hydroxypropylcellulose) (HPC)) is 106 % of control and 95 % of control.

In the case of `CCCCCCCC/C=C\CCCCCCCC(=O)OCCCCCC`, the T/C runs as follows: (dose: 100.0 mg/kg/injection, schedule: Q01DX009 (ip), vehicle: saline sonified) 98 % of control; (dose: 200.0 mg/kg/injection, schedule: Q01DX009 (ip), vehicle: saline sonified) 102 % of control; (dose: 400.0 mg/kg/injection, schedule: Q01DX009 (ip), vehicle: saline sonified) 93 % of control.

Regarding `CC(=O)NCC(N)=S`, the T/C is 102 % of control under setting [1]; 102 % of control under setting [2]; 98 % of control (dose: 400.0 mg/kg/injection, schedule: Q01DX001 (ip), vehicle: saline).

As to `O=NN(CC(=O)O)C(c1ccccc1)(c1ccccc1)c1ccccc1Cl`, the T/C is 95 % of control under setting [3] and 93 % of control under setting [4].

`C/C=C/C(=O)Nc1cccc(C(F)(F)F)c1`: the T/C (dose: 25.0 mg/kg/injection, schedule: Q01DX009 (ip), vehicle: other) was 92 % of control; the T/C under setting [5] is 102 % of control; the T/C under setting [6] is 92 % of control and 95 % of control.

Consider `CCN(CC)CCNCc1cc(Cl)c2cccnc2c1O`, for which the T/C (dose: 6.25 mg/kg/injection, schedule: Q04DX002 (ip), vehicle: saline) was 90 % of control; the T/C (dose: 12.5 mg/kg/injection, schedule: Q04DX002 (ip), vehicle: saline) is 97 % of control; the T/C (dose: 25.0 mg/kg/injection, schedule: Q04DX002 (ip), vehicle: saline) was 94 % of control.

Take `O=C1C(NCCO)=C(N2CC2)C(=O)C(NCCO)=C1N1CC1`: the T/C is, setting by setting: (dose: 0.04 mg/kg/injection, schedule: Q01DX009 (ip), vehicle: saline) 115 % of control; (dose: 0.09 mg/kg/injection, schedule: Q01DX009 (ip), vehicle: saline) 111 % of control; (dose: 0.09 mg/kg/injection, schedule: Q04DX003 (ip), vehicle: saline) 121 % of control; (dose: 0.18 mg/kg/injection, schedule: Q01DX009 (ip), vehicle: saline) 159 % of control and 164 % of control and 195 % of control; (dose: 0.18 mg/kg/injection, schedule: Q04DX003 (ip), vehicle: saline) 120 % of control; (dose: 0.19 mg/kg/injection, schedule: Q01DX009 (ip), vehicle: saline) 153 % of control. In addition, the T/C is 103 % of control (dose: 0.37 mg/kg/injection, schedule: Q01DX001 (ip), vehicle: saline); 157 % of control and 164 % of control and 212 % of control (dose: 0.37 mg/kg/injection, schedule: Q01DX009 (ip), vehicle: saline); 155 % of control and 157 % of control (dose: 0.37 mg/kg/injection, schedule: Q04DX003 (ip), vehicle: saline); 184 % of control (dose: 0.38 mg/kg/injection, schedule: Q01DX009 (ip), vehicle: saline); 170 % of control and 231 % of control (dose: 0.75 mg/kg/injection, schedule: Q04DX003 (ip), vehicle: saline); 275 % of control (dose: 1.5 mg/kg/injection, schedule: Q01DX001 (ip), vehicle: saline). The T/C is 160 % of control and 164 % of control and 186 % of control (dose: 1.5 mg/kg/injection, schedule: Q04DX003 (ip), vehicle: saline); 103 % of control (dose: 1.56 mg/kg/injection, schedule: Q04DX003 (ip), vehicle: saline); 104 % of control and 115 % of control (dose: 3.0 mg/kg/injection, schedule: Q04DX003 (ip), vehicle: saline).

Turning to `CN(C)Cc1ccc(N)cc1`, the T/C reads like this: (dose: 10.0 mg/kg/injection, schedule: Q01DX009 (ip), vehicle: water) 107 % of control; (dose: 20.0 mg/kg/injection, schedule: Q01DX009 (ip), vehicle: water) 105 % of control; (dose: 40.0 mg/kg/injection, schedule: Q01DX009 (ip), vehicle: water) 107 % of control; (dose: 50.0 mg/kg/injection, schedule: Q01DX009 (ip), vehicle: water) 91 % of control; (dose: 80.0 mg/kg/injection, schedule: Q01DX009 (ip), vehicle: water) 96 % of control; (dose: 100.0 mg/kg/injection, schedule: Q01DX009 (ip), vehicle: water) 88 % of control. Besides, the T/C is, setting by setting: (dose: 100.0 mg/kg/injection, schedule: Q04DX003 (ip), vehicle: water) 100 % of control; (dose: 200.0 mg/kg/injection, schedule: Q04DX003 (ip), vehicle: water) 102 % of control.

On to `CC(C)(C)C1CCC(OS(C)(=O)=O)C(OS(C)(=O)=O)C1` (stereo not drawn), for which the T/C by setting is: (dose: 12.5 mg/kg/injection, schedule: Q04DX003 (ip), vehicle: Klucel (hydroxypropylcellulose) (HPC)) 102 % of control; (dose: 25.0 mg/kg/injection, schedule: Q04DX003 (ip), vehicle: Klucel (hydroxypropylcellulose) (HPC)) 100 % of control.

Consider `Nc1nc(N)c(CCCOc2ccc(NC(=O)c3cccc(S(=O)OF)c3)cc2)c(N)n1` (stereo not drawn), for which the T/C is 97 % of control (dose: 0.8 mg/kg/injection, schedule: Q01DX015 (ip), vehicle: saline); 97 % of control (dose: 4.0 mg/kg/injection, schedule: Q01DX015 (ip), vehicle: saline); 95 % of control (dose: 20.0 mg/kg/injection, schedule: Q01DX015 (ip), vehicle: saline); 106 % of control (dose: 100.0 mg/kg/injection, schedule: Q01DX015 (ip), vehicle: saline); 91 % of control (dose: 133.0 mg/kg/injection, schedule: Q01DX015 (ip), vehicle: saline).

In the case of `CCC(C)c1ccc(OCCO)cc1` (stereo not drawn), the T/C under setting [1] was 97 % of control and the T/C under setting [2] is 90 % of control.

Take `C1CCC(N2OC23CCCCC3)CC1` (stereo not drawn): the T/C (dose: 100.0 mg/kg/injection, schedule: Q01DX001 (ip), vehicle: carboxymethylcellulose (CMC)) was 92 % of control; the T/C (dose: 200.0 mg/kg/injection, schedule: Q01DX001 (ip), vehicle: carboxymethylcellulose (CMC)) is 90 % of control; the T/C (dose: 400.0 mg/kg/injection, schedule: Q01DX001 (ip), vehicle: carboxymethylcellulose (CMC)) is 92 % of control.

As to `CC(CO)[CH2][Sn]([c]1ccccc1)([c]1ccccc1)[c]1ccccc1` (stereo not drawn), the T/C is, setting by setting: (dose: 100.0 mg/kg/injection, schedule: Q04DX002 (ip), vehicle: saline with Tween-80) 98 % of control and 101 % of control; (dose: 200.0 mg/kg/injection, schedule: Q04DX002 (ip), vehicle: saline with Tween-80) 98 % of control; (dose: 400.0 mg/kg/injection, schedule: Q04DX002 (ip), vehicle: saline with Tween-80) 95 % of control and 98 % of control.

Consider `O=C(O)CCC1CCC(=O)OC1=O` (stereo not drawn), for which the T/C (dose: 100.0 mg/kg/injection, schedule: Q01DX009 (ip), vehicle: saline) was 101 % of control; the T/C (dose: 100.0 mg/kg/injection, schedule: Q04DX003 (ip), vehicle: saline) was 98 % of control; the T/C (dose: 200.0 mg/kg/injection, schedule: Q01DX009 (ip), vehicle: saline) is 100 % of control; the T/C (dose: 200.0 mg/kg/injection, schedule: Q04DX003 (ip), vehicle: saline) was 89 % of control; the T/C (dose: 400.0 mg/kg/injection, schedule: Q01DX009 (ip), vehicle: saline) was 99 % of control; the T/C (dose: 400.0 mg/kg/injection, schedule: Q04DX003 (ip), vehicle: saline) is 94 % of control.

Turning to `Cc1cccc([N+](=O)[O-])c1-c1ccccc1C(=O)O`, the T/C reads like this: (dose: 50.0 mg/kg/injection, schedule: Q04DX003 (ip), vehicle: Klucel (hydroxypropylcellulose) (HPC)) 88 % of control; (dose: 100.0 mg/kg/injection, schedule: Q01DX009 (ip), vehicle: Klucel (hydroxypropylcellulose) (HPC)) 93 % of control and 95 % of control; under setting [3], 94 % of control; (dose: 200.0 mg/kg/injection, schedule: Q01DX009 (ip), vehicle: Klucel (hydroxypropylcellulose) (HPC)) 96 % of control and 103 % of control; under setting [4], 100 % of control; (dose: 400.0 mg/kg/injection, schedule: Q01DX009 (ip), vehicle: Klucel (hydroxypropylcellulose) (HPC)) 97 % of control.

Consider `CC(CC(=O)c1ccccc1)C(C(=O)c1ccccc1)c1ccccc1` (stereo not drawn), for which the T/C reads like this: under setting [5], 101 % of control; under setting [6], 101 % of control; (dose: 200.0 mg/kg/injection, schedule: Q01DX009 (ip), vehicle: other) 101 % of control.
